Experimental data: the NIST ThermoML archive (doi:10.1016/j.jct.2018.02.014)
Numbers after ± are expanded uncertainties.

Test: activity coefficient (dimensionless); of the first substance listed, at infinite dilution; xn = mol fraction of the nth substance listed
Conditions: 101.33 kPa, Liquid, Chromatography, x1 = 0

Row | Structure (SMILES) | activity coefficient (328.15 K) | activity coefficient (338.15 K) | activity coefficient (348.15 K) | activity coefficient (358.15 K) | activity coefficient (368.15 K) | activity coefficient (318.15 K) | activity coefficient (298.15 K) | activity coefficient (308.15 K)
1 | CCOCC [diethyl ether] + CC[N+]1(C)CCOCC1.N#CN=C=[N-] | 28.5 ± 1.9 | 29.3 ± 2 | 30.1 ± 2.1 | 30.8 ± 2.1 | 31.6 ± 2.2 | – | – | –
2 | CC(C)OC(C)C [diisopropyl ether] + CC[N+]1(C)CCOCC1.N#CN=C=[N-] | 123 ± 8 | 125 ± 9 | 127 ± 9 | 128 ± 9 | 130 ± 9 | – | – | –
3 | CCCOCCC [dipropyl ether] + CC[N+]1(C)CCOCC1.N#CN=C=[N-] | 110 ± 8 | 112 ± 8 | 114 ± 8 | 116 ± 8 | 119 ± 8 | – | – | –
4 | CCO [ethanol] + CC[N+]1(C)CCOCC1.N#CN=C=[N-] | 1.2 ± 0.08 | 1.21 ± 0.08 | 1.21 ± 0.08 | 1.22 ± 0.08 | 1.22 ± 0.08 | 1.2 ± 0.08 | – | –
5 | CCOC(C)=O [ethyl acetate] + CC[N+]1(C)CCOCC1.N#CN=C=[N-] | 5.93 ± 0.4 | 6.19 ± 0.42 | 6.45 ± 0.44 | 6.71 ± 0.46 | 6.96 ± 0.47 | 5.67 ± 0.39 | – | –
6 | CCc1ccccc1 [ethylbenzene] + CC[N+]1(C)CCOCC1.N#CN=C=[N-] | 15.3 ± 1 | 15.5 ± 1.1 | 15.7 ± 1.1 | 15.8 ± 1.1 | 16 ± 1.1 | 15.1 ± 1 | – | –
7 | CCCCCCC [heptane] + CC[N+]1(C)CCOCC1.N#CN=C=[N-] | 645 ± 44 | 574 ± 40 | – | – | – | 729 ± 50 | 953 ± 66 | 831 ± 57
8 | C=CCCCC [hex-1-ene] + CC[N+]1(C)CCOCC1.N#CN=C=[N-] | 152 ± 10 | 141 ± 10 | – | – | – | 163 ± 11 | 193 ± 13 | 177 ± 12
9 | CCCCCC [hexane] + CC[N+]1(C)CCOCC1.N#CN=C=[N-] | – | – | – | – | – | 482 ± 33 | 608 ± 42 | 539 ± 37
10 | CC(C)c1ccccc1 [isopropylbenzene] + CC[N+]1(C)CCOCC1.N#CN=C=[N-] | 26.9 ± 1.8 | 26.9 ± 1.8 | 26.9 ± 1.8 | 26.9 ± 1.8 | 26.9 ± 1.8 | 27 ± 1.8 | – | –
11 | CO [methanol] + CC[N+]1(C)CCOCC1.N#CN=C=[N-] | 0.631 ± 0.044 | 0.645 ± 0.044 | 0.659 ± 0.045 | 0.672 ± 0.046 | 0.684 ± 0.046 | 0.617 ± 0.043 | – | –
12 | CCCC(=O)OC [methyl butanoate] + CC[N+]1(C)CCOCC1.N#CN=C=[N-] | 9.53 ± 0.65 | 9.79 ± 0.67 | 10 ± 0.7 | 10.3 ± 0.7 | 10.5 ± 0.7 | 9.27 ± 0.63 | – | –
13 | COC(C)=O [methyl ethanoate] + CC[N+]1(C)CCOCC1.N#CN=C=[N-] | 3.02 ± 0.21 | 3.18 ± 0.22 | 3.34 ± 0.23 | 3.5 ± 0.24 | 3.65 ± 0.25 | 2.86 ± 0.2 | – | –
14 | CCC(=O)OC [methyl propanoate] + CC[N+]1(C)CCOCC1.N#CN=C=[N-] | 5.36 ± 0.37 | 5.59 ± 0.38 | 5.82 ± 0.4 | 6.04 ± 0.41 | 6.26 ± 0.43 | 5.12 ± 0.35 | – | –
15 | CC1CCCCC1 [methylcyclohexane] + CC[N+]1(C)CCOCC1.N#CN=C=[N-] | 263 ± 18 | 242 ± 17 | 224 ± 15 | 208 ± 14 | 194 ± 13 | 288 ± 20 | – | –
16 | CCCCCCCCC [nonane] + CC[N+]1(C)CCOCC1.N#CN=C=[N-] | 1350 ± 93 | 1190 ± 82 | 1050 ± 73 | 945 ± 65 | 850 ± 59 | 1540 ± 110 | – | –
17 | C=CCCCCCC [oct-1-ene] + CC[N+]1(C)CCOCC1.N#CN=C=[N-] | 445 ± 31 | 402 ± 28 | 364 ± 25 | 333 ± 23 | 307 ± 21 | 496 ± 34 | – | –
18 | CCCCCCCC [octane] + CC[N+]1(C)CCOCC1.N#CN=C=[N-] | 1010 ± 70 | 903 ± 62 | 814 ± 56 | 737 ± 51 | 672 ± 46 | 1130 ± 78 | – | –
19 | CCCCCO [pentan-1-ol] + CC[N+]1(C)CCOCC1.N#CN=C=[N-] | 4.7 ± 0.32 | 4.63 ± 0.32 | 4.56 ± 0.31 | 4.49 ± 0.31 | 4.43 ± 0.3 | 4.78 ± 0.33 | – | –
20 | CCCC(C)=O [pentan-2-one] + CC[N+]1(C)CCOCC1.N#CN=C=[N-] | 5.26 ± 0.36 | 5.45 ± 0.37 | 5.63 ± 0.38 | 5.81 ± 0.4 | 5.98 ± 0.41 | 5.08 ± 0.35 | – | –
21 | CCC(=O)CC [pentan-3-one] + CC[N+]1(C)CCOCC1.N#CN=C=[N-] | 5.44 ± 0.37 | 5.64 ± 0.38 | 5.84 ± 0.4 | 6.03 ± 0.41 | 6.23 ± 0.42 | 5.23 ± 0.36 | – | –
22 | CCCO [propan-1-ol] + CC[N+]1(C)CCOCC1.N#CN=C=[N-] | 1.85 ± 0.12 | 1.84 ± 0.12 | 1.84 ± 0.12 | 1.84 ± 0.12 | 1.83 ± 0.12 | 1.85 ± 0.12 | – | –
23 | CC(C)O [propan-2-ol] + CC[N+]1(C)CCOCC1.N#CN=C=[N-] | 2 ± 0.14 | 1.99 ± 0.14 | 1.97 ± 0.13 | 1.96 ± 0.13 | 1.95 ± 0.13 | 2.02 ± 0.14 | – | –
24 | CCCc1ccccc1 [propylbenzene] + CC[N+]1(C)CCOCC1.N#CN=C=[N-] | 29.1 ± 2 | 29.1 ± 2 | 29.1 ± 2 | 29.2 ± 2 | 29.2 ± 2 | 29.2 ± 2 | – | –
25 | c1ccncc1 [pyridine] + CC[N+]1(C)CCOCC1.N#CN=C=[N-] | 1.81 ± 0.12 | 1.88 ± 0.13 | 1.96 ± 0.13 | 2.03 ± 0.14 | 2.1 ± 0.14 | 1.74 ± 0.12 | – | –
26 | C=Cc1ccccc1 [styrene] + CC[N+]1(C)CCOCC1.N#CN=C=[N-] | 6.59 ± 0.45 | 6.81 ± 0.46 | 7.01 ± 0.48 | 7.22 ± 0.49 | 7.43 ± 0.51 | 6.38 ± 0.43 | – | –
27 | C1CCOC1 [tetrahydrofuran] + CC[N+]1(C)CCOCC1.N#CN=C=[N-] | 3.44 ± 0.23 | 3.57 ± 0.24 | 3.7 ± 0.25 | 3.82 ± 0.26 | 3.95 ± 0.27 | 3.3 ± 0.22 | – | –
28 | c1ccsc1 [thiophene] + CC[N+]1(C)CCOCC1.N#CN=C=[N-] | 2.36 ± 0.16 | 2.48 ± 0.17 | 2.59 ± 0.18 | 2.71 ± 0.18 | 2.82 ± 0.19 | 2.24 ± 0.15 | – | –
29 | Cc1ccccc1 [toluene] + CC[N+]1(C)CCOCC1.N#CN=C=[N-] | 8.1 ± 0.55 | 8.33 ± 0.57 | 8.56 ± 0.58 | 8.77 ± 0.6 | 8.99 ± 0.61 | 7.87 ± 0.54 | – | –
30 | C=COC(C)=O [vinyl acetate] + CC[N+]1(C)CCOCC1.N#CN=C=[N-] | 4.41 ± 0.3 | 4.6 ± 0.31 | 4.78 ± 0.33 | 4.97 ± 0.34 | 5.15 ± 0.35 | 4.22 ± 0.29 | – | –
